Like-named read-outs stand apart in the source and are kept apart here.
Columns and labels:
[1] = test system: M. avium subsp. paratuberculosis CIT03; assay: microbe, parasite or virus in culture; assay type: cell-based; settings: Mycobacterium avium, 168 h; 7 days incubation, alamarBlue; MIC = IC90; read-out: MIC, MAP CIT03
[2] = test system: M. avium intracellulare ATCC 13950; assay: In vitro antimycobacterial MIC (IC90), alamarBlue 96-well assay in Middlebrook broth; assay type: cell-based, Mycobacterium avium intracellulare; settings: Mycobacterium avium, ATCC13950, 168 h, 7 days incubation, read-out: MIC, MAI ATCC 13950
[3] = Isocratic RP-HPLC lipophilicity (k, log k, extrapolated log kw, slope S), MeOH/water mobile phases; assay type: physicochemical; settings: for log kw (RP-HPLC): extrapolated to 100% water from log k vs ϕM (MeOH); for S, slope (RP-HPLC): slope of regression log k vs ϕM, alternative measure of lipophilicity
Source text: Octadecyl-functionalized silica gel was used as a stationary phase in the RP-HPLC evaluation of 8a–h. A gradient of two solvents at different volume ratios modulated retention properties of a stationary phase. Liquid binary mixtures of methanol (MeOH) with water were employed as mobile phases in a present isocratic RP-HPLC method. The MeOH organic modifier was preferred because of making a reversed-phase chromatographic system closer to the octan-1-ol/water partitioning one in terms of sensitivity to H-bond donor properties of investigated compounds [39, 40]. The modifier was applied in different volume concentrations that varied from 60% to 85% (v/v).
The chromatographic HPLC-Diode Array Detection apparatus for the determination of capacity (retention) factor k (log k) values was the LC Agilent Infinity System (Agilent Technologies, Santa Clara, CA, USA) equipped with a Infinity 1260 gradient pump with a degasser, a 1260 HiPals automatic injector, a column thermostat 1290, a photo-diode array detector Infinity 1290 (all the equipments were obtained by Agilent Technologies) and personal computer with the Agilent ChemStation software (Agilent Technologies) for the registration of values and calibration procedures. The chromatographic column Eclipse plus RP C18, 150 × 4.6 mm i.d., a 5 μm particle size (Agilent Technologies), was used and thermostated at 35 °C.
The analyses were performed at pressure ranged from 7 MPa to 15 MPa. The detection wavelength was set to 260 nm, injection sample volume was 5 μL with a flow rate of 1.0 mL/min in all RP-HPLC analyses.
LC-MS Methanol (J. T. Baker Chemicals Co., Phillipsburg, NJ, USA) and HPLC-quality water (Sigma-Aldrich, Darmstadt, Germany) were used for a preparation of mobile phases. Water was firstly deionized and purified by the Millipore Simplicity 185 Ultrapure water purification system (Millipore, Billerica, MA, USA).
Methanol (MeOH)/water mobile phases with a various volume ratio of the organic modifier and water (60:40, 70:30, 80:20 and 85:15, respectively; v/v) were chosen. A concentration of all analyzed compounds 8a–h was c = 0.25 mg/mL. An queous solution of potassium nitrate (c = 0.1 M) was used for the determination of dead time t0 = 1.295 min. The capacity (retention) factor k values (Table 1) were calculated by Equation (6) as follows:k = (tr – t0)/t0(6) where the tr and t0 parameters were the retention times of a solute (tr) and unretained compound (potassium nitrate; t0), respectively. The observed retention (tr) and dead (t0) times were means of three independent determinations.
The log kw values, i.e., the logarithms of extrapolated capacity (retention) factors for 100% water in the isocratic RP-HPLC, were determined from intercepts of linear plots between the log k and ϕM (a volume fraction of an organic modifier in the isocratic elution RP-HPLC) according to Equation (7): log k = log kw – S × ϕM(7) where the S parameter represented the slope of a regression curve, which was related to the solvent strength of a pure organic solvent.

[4] = test system: M. avium CNCTC My 330/80 (identical with ATCC 25291); assay: In vitro antimycobacterial MIC, dilution-micromethod in Šula semisynthetic medium; assay type: cell-based; settings: Mycobacterium avium
[5] = test system: M. kansasii 6 509/96 clinical isolate; assay: as above; assay type: cell-based; settings: Mycobacterium kansasii, read-out: MIC, MK 6 509/96
[6] = test system: M. kansasii CNCTC My 235/80 (identical with ATCC 12478); assay: as above; assay type: cell-based, Mycobacterium kansasii; settings: Mycobacterium kansasii, read-out: MIC, MK My 235/80
[7] = UV/Vis spectra of methanolic solutions (log ε); assay type: physicochemical; settings: methanolic solution c = 3.0 × 10^−5 M; for log ε2(Ch-T): charge-transfer maximum λ2(Ch-T) = 238–240 nm; for log ε1: λ1 = 208–210 nm; for log ε3: λ3 = 274–276 nm
Source text: Electronic properties of the inspected compounds 8a–h (Table 3) were characterized by logarithms of molar absorption coefficients (log ε) of their methanolic solutions (c = 3.0 × 10^−5 M) investigated in the UV/Vis region of the spectrum.
The UV/Vis spectra of methanolic solutions of the analyzed compounds 8a–h (c = 3.0 × 10^−5 M) were estimated on the 8452A Diode Array spectrophotometer HP-8452A (Hewlett Packard, Palo Alto, CA, USA). Methanol for UV-spectroscopy (Merck) was used for the preparation of these solutions.
Results of the UV/Vis analyses were collected and stored digitally using the ChemStation controller software (Agilent Technologies, Waldbronn, Germany). The HP-8452A apparatus measured a complete range of a spectrum from 190 nm to 820 nm.
The log ε values characterizing methanolic solutions of the analyzed compounds 8a–h (c = 3.0 × 10^−5 M) were estimated at λ1 = 208–210 nm, λ2(Ch-T) = 238–240 nm and λ3 = 274–276 nm (Table 3), respectively, in a near ultraviolet (quarz) region of the electromagnetic spectrum between 200 and 400 nm. The log ε values for the observed absorption maxima were calculated according to the Lambert-Beer´s law discussed in [47], for example, and expressed by Equation (8):A = ε × c × l(8) where the A parameter represented the absorbance of a solution, the descriptor ε was a molar absorption coefficient (in the L/mol/cm units) and l was the path length (in the cm units).

M. kansasii CIT11/06 = assay: In vitro antimycobacterial MIC (IC90), alamarBlue 96-well assay in Middlebrook broth; assay type: cell-based, Mycobacterium kansasii; settings: Mycobacterium kansasii, CIT11/06, 168 h, 7 days incubation, read-out: MIC, MK CIT11/06
[8] = test system: M. avium hominissuis CIT10/08; assay: as above; assay type: cell-based, Mycobacterium avium hominissuis; settings: Mycobacterium avium, 168 h, 7 days incubation, read-out: MIC, MAH CIT10/08
[9] = mobile phase MeOH/water 60:40 (v/v)
[10] = mobile phase MeOH/water 70:30 (v/v)
[11] = mobile phase MeOH/water 80:20 (v/v)
[12] = mobile phase MeOH/water 85:15 (v/v)
[13] = ATCC25291, 336 h, 14 d cultivation, read-out: MIC, MA My 330/88
[14] = ATCC25291, 504 h, 21 d cultivation, read-out: MIC, MA My 330/88
[15] = ATCC12478, 168 h, 7 d cultivation
[16] = ATCC12478, 336 h, 14 d cultivation
[17] = ATCC12478, 504 h, 21 d cultivation

Row | SMILES | MIC [1] | MIC [2] | capacity factor k (RP-HPLC) ([3]; MeOH/water 60:40 (v/v)) | capacity factor k (RP-HPLC) ([3]; MeOH/water 70:30 (v/v)) | capacity factor k (RP-HPLC) ([3]; MeOH/water 80:20 (v/v)) | capacity factor k (RP-HPLC) ([3]; MeOH/water 85:15 (v/v)) | log kw (RP-HPLC) [3] | log k (RP-HPLC) [3, 9] | log k (RP-HPLC) [3, 10] | log k (RP-HPLC) [3, 11] | log k (RP-HPLC) [3, 12] | S, slope (RP-HPLC) [3] | MIC [4, 13] | MIC [4, 14] | MIC ([5]; 336 h, 14 d cultivation) | MIC ([5]; 504 h, 21 d cultivation) | MIC [6, 15] | MIC [6, 16] | MIC [6, 17] | log ε2(Ch-T) [7] | further results
1 | COC(=O)Nc1cccc(C(O)CN2CCN(c3ccccc3F)CC2)c1.Cl (stereo not shown) [8a, 1-(2-Hydroxy-2-{3-[(methoxycarbonyl)amino]phenyl}ethyl)-4-(2-fluorophenyl)piperazin-1-ium chloride] | > 610 µM | > 610 µM | 4.091 | 1.770 | 0.925 | 0.699 | 2.430 | 0.612 | 0.248 | −0.034 | −0.156 | 3.0678 | 500 µM | 500 µM | 500 µM | 500 µM | 125 µM | 500 µM | 1000 µM | 4.30 | MIC ([4]; ATCC25291, 336 h, 14-d/21-d, read-out: MIC against M. avium CNCTC My 330/80): 500 µM; MIC ([5]; 168 h, 7 d cultivation): 125 µM; log ε1 [7]: 4.30; log ε3 [7]: 3.45; MIC (M. kansasii CIT11/06): > 610 µM; MIC [8]: > 610 µM
2 | CCOC(=O)Nc1cccc(C(O)CN2CCN(c3ccccc3F)CC2)c1.Cl (stereo not shown) [8b, 1-(2-{3-[(Ethoxycarbonyl)amino]phenyl}-2-hydroxyethyl)-4-(2-fluorophenyl)piperazin-1-ium chloride] | > 590 µM | > 590 µM | 4.951 | 2.778 | 1.245 | 0.879 | 2.546 | 0.695 | 0.444 | 0.095 | −0.056 | 3.0529 | 250 µM | 250 µM | 250 µM | 250 µM | 62.5 µM | 250 µM | 250 µM | 4.33 | MIC ([5]; 168 h, 7 d cultivation): 62.5 µM; log ε1 [7]: 4.31; log ε3 [7]: 3.40; MIC (M. kansasii CIT11/06): 295 µM; MIC [8]: > 590 µM
3 | CCOC(=O)Nc1ccc(C(O)CN2CCN(c3ccccc3F)CC2)cc1.Cl (stereo not shown) [8f, 1-(2-{4-[(Ethoxycarbonyl)amino]phenyl}-2-hydroxyethyl)-4-(2-fluorophenyl)piperazin-1-ium chloride] | > 590 µM | > 590 µM | 4.524 | 2.053 | 1.023 | 0.757 | 2.512 | 0.656 | 0.312 | 0.010 | −0.121 | 3.1156 | > 250 µM | > 250 µM | > 125 µM | > 125 µM | 125 µM | > 250 µM | > 250 µM | 4.60 | MIC ([5]; 168 h): 62.5 µM; log ε1 [7]: 4.59; log ε3 [7]: 3.60; MIC (M. kansasii CIT11/06): 295 µM; MIC [8]: > 590 µM
